Here are results for 8 compounds from patent publication US20250223268A1, “4-Methylsulfonylbenzamide Compound, Preparation Method, Herbicidal Composition And Use” (Jiangsu Flag Chemical Industry Co., Ltd., priority 2022, published 2025).

One test concerns Cyperus iria. As to the kind of experiment: Greenhouse herbicidal activity assay, post-emergence. The test is classed as in vivo. The note with it: Cyperus iria; Post-emergence test, rate 150 g a.i./hm^2; grade by fresh weight inhibition rate; read-out: Control efficacy grade, Cyperus iria. An outline of the steps:
(§1)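 Scores reflect fresh weight inhibition assessed 14-21 days after treatment, with grade A meaning ≥80% to 100% and grade E meaning <20%. Plants, raised in nutrient-soil pots inside a growth chamber, were sprayed on the foliage at the 3-6 leaf stage.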
As to `CCCSc1c(S(C)(=O)=O)ccc(C(=O)Nc2nnco2)c1Cl` [Compound 3-267, 2-chloro-4-(methylsulfonyl)-N-(1,3,4-oxadiazol-2-yl)-3-(propylthio)benzamide], the pest or weed control at 150 g/ha was 80 to 100%.

As to `CCC[S+]([O-])c1c(S(C)(=O)=O)ccc(C(=O)Nc2nnco2)c1Cl` (stereo not shown) [Compound 3-268, 2-chloro-4-(methylsulfonyl)-N-(1,3,4-oxadiazol-2-yl)-3-(propylsulfinyl)benzamide], the pest or weed control at 150 g/ha was 80 to 100%.

The same test, now with this note: Post-emergence test, rate 150 g a.i./hm^2; grade by fresh weight inhibition rate.
Take `Cc1nnc(NC(=O)c2ccc(S(C)(=O)=O)c(SCC(F)F)c2Cl)o1` [Compound 3-102]: the “Control efficacy grade, Cyperus iria” value is “A (Fresh weight inhibition rate≥80% to 100%)”.

With `C=CCSc1c(S(C)(=O)=O)ccc(C(=O)Nc2nnc(C)o2)c1Cl` [Compound 3-112], the “Control efficacy grade, Cyperus iria” value is recorded as “A (Fresh weight inhibition rate≥80% to 100%)”.

With `C=C(C)CSc1c(S(C)(=O)=O)ccc(C(=O)Nc2nnc(C)o2)c1Cl` [Compound 3-142], the “Control efficacy grade, Cyperus iria” value is listed as “A (Fresh weight inhibition rate≥80% to 100%)”.

Turning to `C#CCSc1c(S(C)(=O)=O)ccc(C(=O)Nc2nnc(C)o2)c1Cl` [Compound 3-147], the “Control efficacy grade, Cyperus iria” value is reported as “B (Fresh weight inhibition rate≥260% to <80%)”.

Take `Cc1nnc(NC(=O)c2ccc(S(C)(=O)=O)c(SCC#N)c2Cl)o1` [Compound 3-192]: the “Control efficacy grade, Cyperus iria” value is recorded as “A (Fresh weight inhibition rate≥80% to 100%)”.

For the compound `Cc1nnc(NC(=O)c2ccc(S(C)(=O)=O)c(SCCC#N)c2Cl)o1` [Compound 3-197], the “Control efficacy grade, Cyperus iria” value is recorded as “A (Fresh weight inhibition rate≥80% to 100%)”.

The next test concerns Echinochloa crusgalli. Described as above. It counts as in vivo. The note with it: Echinochloa crus-galli; Post-emergence test, rate 150 g a.i./hm^2; grade by fresh weight inhibition rate; read-out: Control efficacy grade, Echinochloa crusgalli. The essentials:
as §1
Regarding `CCCSc1c(S(C)(=O)=O)ccc(C(=O)Nc2nnco2)c1Cl` [Compound 3-267, 2-chloro-4-(methylsulfonyl)-N-(1,3,4-oxadiazol-2-yl)-3-(propylthio)benzamide], the pest or weed control at 150 g/ha lay within 80 to 100%.

In the case of `CCC[S+]([O-])c1c(S(C)(=O)=O)ccc(C(=O)Nc2nnco2)c1Cl` (stereo not shown) [Compound 3-268, 2-chloro-4-(methylsulfonyl)-N-(1,3,4-oxadiazol-2-yl)-3-(propylsulfinyl)benzamide], the pest or weed control at 150 g/ha was in the range of 80 to 100%.

The test is the same for the next values; noted with them: Post-emergence test, rate 150 g a.i./hm^2; grade by fresh weight inhibition rate.
For `Cc1nnc(NC(=O)c2ccc(S(C)(=O)=O)c(SCC(F)F)c2Cl)o1` [Compound 3-102], the “Control efficacy grade, Echinochloa crusgalli” value was “A (Fresh weight inhibition rate≥80% to 100%)”.

Take `C=CCSc1c(S(C)(=O)=O)ccc(C(=O)Nc2nnc(C)o2)c1Cl` [Compound 3-112]: the “Control efficacy grade, Echinochloa crusgalli” value is recorded as “A (Fresh weight inhibition rate≥80% to 100%)”.

With `C=C(C)CSc1c(S(C)(=O)=O)ccc(C(=O)Nc2nnc(C)o2)c1Cl` [Compound 3-142], the “Control efficacy grade, Echinochloa crusgalli” value is given as “A (Fresh weight inhibition rate≥80% to 100%)”.

Consider `C#CCSc1c(S(C)(=O)=O)ccc(C(=O)Nc2nnc(C)o2)c1Cl` [Compound 3-147], for which the “Control efficacy grade, Echinochloa crusgalli” value was “B (Fresh weight inhibition rate≥260% to <80%)”.

As to `Cc1nnc(NC(=O)c2ccc(S(C)(=O)=O)c(SCC#N)c2Cl)o1` [Compound 3-192], the “Control efficacy grade, Echinochloa crusgalli” value is given as “A (Fresh weight inhibition rate≥80% to 100%)”.

As for `Cc1nnc(NC(=O)c2ccc(S(C)(=O)=O)c(SCCC#N)c2Cl)o1` [Compound 3-197], the “Control efficacy grade, Echinochloa crusgalli” value was “A (Fresh weight inhibition rate≥80% to 100%)”.

In the next test the test system is Eclipta prostrata. Described as above. It counts as in vivo. The note with it: Eclipta prostrata; Post-emergence test, rate 150 g a.i./hm^2; grade by fresh weight inhibition rate; read-out: Control efficacy grade, Eclipta prostrata. An outline of the steps:
as §1
Take `CCCSc1c(S(C)(=O)=O)ccc(C(=O)Nc2nnco2)c1Cl` [Compound 3-267, 2-chloro-4-(methylsulfonyl)-N-(1,3,4-oxadiazol-2-yl)-3-(propylthio)benzamide]: the pest or weed control at 150 g/ha was 80 to 100%.

With `CCC[S+]([O-])c1c(S(C)(=O)=O)ccc(C(=O)Nc2nnco2)c1Cl` (stereo not shown) [Compound 3-268, 2-chloro-4-(methylsulfonyl)-N-(1,3,4-oxadiazol-2-yl)-3-(propylsulfinyl)benzamide], the pest or weed control at 150 g/ha was in the range of 80 to 100%.

The test is the same for the next values; noted with them: Post-emergence test, rate 150 g a.i./hm^2; grade by fresh weight inhibition rate.
Regarding `Cc1nnc(NC(=O)c2ccc(S(C)(=O)=O)c(SCC(F)F)c2Cl)o1` [Compound 3-102], the “Control efficacy grade, Eclipta prostrata” value was “A (Fresh weight inhibition rate≥80% to 100%)”.

Consider `C=CCSc1c(S(C)(=O)=O)ccc(C(=O)Nc2nnc(C)o2)c1Cl` [Compound 3-112], for which the “Control efficacy grade, Eclipta prostrata” value was “A (Fresh weight inhibition rate≥80% to 100%)”.

As for `C=C(C)CSc1c(S(C)(=O)=O)ccc(C(=O)Nc2nnc(C)o2)c1Cl` [Compound 3-142], the “Control efficacy grade, Eclipta prostrata” value is reported as “A (Fresh weight inhibition rate≥80% to 100%)”.

For `C#CCSc1c(S(C)(=O)=O)ccc(C(=O)Nc2nnc(C)o2)c1Cl` [Compound 3-147], the “Control efficacy grade, Eclipta prostrata” value is on record as “A (Fresh weight inhibition rate≥80% to 100%)”.

In the case of `Cc1nnc(NC(=O)c2ccc(S(C)(=O)=O)c(SCC#N)c2Cl)o1` [Compound 3-192], the “Control efficacy grade, Eclipta prostrata” value is listed as “A (Fresh weight inhibition rate≥80% to 100%)”.

Take `Cc1nnc(NC(=O)c2ccc(S(C)(=O)=O)c(SCCC#N)c2Cl)o1` [Compound 3-197]: the “Control efficacy grade, Eclipta prostrata” value was “A (Fresh weight inhibition rate≥80% to 100%)”.

A further test has as its system Leptochloa chinensis. The description is as above. The note with it: Dinebra chinensis; Post-emergence test, rate 150 g a.i./hm^2; grade by fresh weight inhibition rate; read-out: Control efficacy grade, Leptochloa chinensis. It counts as in vivo. An outline of the steps: as §1
In the case of `CCCSc1c(S(C)(=O)=O)ccc(C(=O)Nc2nnco2)c1Cl` [Compound 3-267, 2-chloro-4-(methylsulfonyl)-N-(1,3,4-oxadiazol-2-yl)-3-(propylthio)benzamide], the pest or weed control at 150 g/ha fell in the range of 80 to 100%.

Turning to `CCC[S+]([O-])c1c(S(C)(=O)=O)ccc(C(=O)Nc2nnco2)c1Cl` (stereo not shown) [Compound 3-268, 2-chloro-4-(methylsulfonyl)-N-(1,3,4-oxadiazol-2-yl)-3-(propylsulfinyl)benzamide], the pest or weed control at 150 g/ha was 80 to 100%.

The same test, now with this note: Post-emergence test, rate 150 g a.i./hm^2; grade by fresh weight inhibition rate.
On to `Cc1nnc(NC(=O)c2ccc(S(C)(=O)=O)c(SCC(F)F)c2Cl)o1` [Compound 3-102], for which the “Control efficacy grade, Leptochloa chinensis” value is recorded as “A (Fresh weight inhibition rate≥80% to 100%)”.

With `C=CCSc1c(S(C)(=O)=O)ccc(C(=O)Nc2nnc(C)o2)c1Cl` [Compound 3-112], the “Control efficacy grade, Leptochloa chinensis” value is on record as “A (Fresh weight inhibition rate≥80% to 100%)”.

For the compound `C=C(C)CSc1c(S(C)(=O)=O)ccc(C(=O)Nc2nnc(C)o2)c1Cl` [Compound 3-142], the “Control efficacy grade, Leptochloa chinensis” value is listed as “A (Fresh weight inhibition rate≥80% to 100%)”.

As to `C#CCSc1c(S(C)(=O)=O)ccc(C(=O)Nc2nnc(C)o2)c1Cl` [Compound 3-147], the “Control efficacy grade, Leptochloa chinensis” value was “A (Fresh weight inhibition rate≥80% to 100%)”.

Take `Cc1nnc(NC(=O)c2ccc(S(C)(=O)=O)c(SCC#N)c2Cl)o1` [Compound 3-192]: the “Control efficacy grade, Leptochloa chinensis” value is “A (Fresh weight inhibition rate≥80% to 100%)”.

`Cc1nnc(NC(=O)c2ccc(S(C)(=O)=O)c(SCCC#N)c2Cl)o1` [Compound 3-197]: the “Control efficacy grade, Leptochloa chinensis” value was “A (Fresh weight inhibition rate≥80% to 100%)”.

The test system of another test is Digitaria sanguinalis. Described as above. The test is classed as in vivo. The note with it: Digitaria sanguinalis; Post-emergence test, rate 150 g a.i./hm^2; grade by fresh weight inhibition rate; read-out: Control efficacy grade, Digitaria sanguinalis. The essentials: as §1
In the case of `CCCSc1c(S(C)(=O)=O)ccc(C(=O)Nc2nnco2)c1Cl` [Compound 3-267, 2-chloro-4-(methylsulfonyl)-N-(1,3,4-oxadiazol-2-yl)-3-(propylthio)benzamide], the pest or weed control at 150 g/ha was 80 to 100%.

`CCC[S+]([O-])c1c(S(C)(=O)=O)ccc(C(=O)Nc2nnco2)c1Cl` (stereo not shown) [Compound 3-268, 2-chloro-4-(methylsulfonyl)-N-(1,3,4-oxadiazol-2-yl)-3-(propylsulfinyl)benzamide]: the pest or weed control at 150 g/ha lay in the range of 80 to 100%.

Still in this test, the particulars now being: Post-emergence test, rate 150 g a.i./hm^2; grade by fresh weight inhibition rate.
For `Cc1nnc(NC(=O)c2ccc(S(C)(=O)=O)c(SCC(F)F)c2Cl)o1` [Compound 3-102], the “Control efficacy grade, Digitaria sanguinalis” value is given as “A (Fresh weight inhibition rate≥80% to 100%)”.

For the compound `C=CCSc1c(S(C)(=O)=O)ccc(C(=O)Nc2nnc(C)o2)c1Cl` [Compound 3-112], the “Control efficacy grade, Digitaria sanguinalis” value was “A (Fresh weight inhibition rate≥80% to 100%)”.

`C=C(C)CSc1c(S(C)(=O)=O)ccc(C(=O)Nc2nnc(C)o2)c1Cl` [Compound 3-142]: the “Control efficacy grade, Digitaria sanguinalis” value was “A (Fresh weight inhibition rate≥80% to 100%)”.

In the case of `C#CCSc1c(S(C)(=O)=O)ccc(C(=O)Nc2nnc(C)o2)c1Cl` [Compound 3-147], the “Control efficacy grade, Digitaria sanguinalis” value is reported as “A (Fresh weight inhibition rate≥80% to 100%)”.

In the case of `Cc1nnc(NC(=O)c2ccc(S(C)(=O)=O)c(SCC#N)c2Cl)o1` [Compound 3-192], the “Control efficacy grade, Digitaria sanguinalis” value was “A (Fresh weight inhibition rate≥80% to 100%)”.

Regarding `Cc1nnc(NC(=O)c2ccc(S(C)(=O)=O)c(SCCC#N)c2Cl)o1` [Compound 3-197], the “Control efficacy grade, Digitaria sanguinalis” value is listed as “A (Fresh weight inhibition rate≥80% to 100%)”.
